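Here, GI50 denotes the concentration required for 50% inhibition of growth. TGI marks complete inhibition of growth.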
Assays:
Assay in all cases: NCI tumour cell line growth inhibition, 384-well format; in the data active means GI50 below about 0.43 µM; inactive means the rest
[1] = tested on: SK-MEL-2 melanoma
[2] = tested on: SNB-75 CNS
[3] = tested on: SF-539 CNS
[4] = tested on: UACC-257 melanoma
[5] = tested on: A498 renal
[6] = tested on: UO-31 renal
[7] = tested on: OVCAR-3 ovarian
[8] = tested on: NCI-H226 lung
[9] = tested on: M14 melanoma
[10] = tested on: SK-MEL-28 melanoma
[11] = tested on: SK-OV-3 ovarian
[12] = tested on: DU-145 prostate
[13] = tested on: SF-268 CNS
[14] = tested on: SF-295 CNS
[15] = tested on: T-47D breast
[16] = tested on: TK-10 renal
[17] = tested on: UACC-62 melanoma
[18] = tested on: OVCAR-8 ovarian
[19] = tested on: HOP-62 NSCLC
[20] = tested on: SNB-19 CNS
[21] = tested on: HOP-92 NSCLC
[22] = tested on: NCI-H322M lung
[23] = tested on: HCT-15 colon
[24] = tested on: IGROV1 ovarian
[25] = tested on: MDA-MB-231 breast
[26] = tested on: NCI-H23 lung
[27] = tested on: EKVX NSCLC
[28] = tested on: HCC-2998 colon
[29] = tested on: MDA-MB-468 breast
[30] = tested on: MOLT-4 leukemia
[31] = tested on: MDA-MB-435 melanoma
[32] = tested on: PC-3 prostate
[33] = tested on: CCRF-CEM leukemia
[34] = tested on: LOX IMVI melanoma
[35] = tested on: OVCAR-4 ovarian
[36] = tested on: ACHN renal
[37] = tested on: CAKI-1 renal
[38] = tested on: HT29 colon
[39] = tested on: NCI-H460 NSCLC
[40] = tested on: A549 NSCLC
[41] = tested on: NCI-H522 lung
[42] = tested on: BT-549 breast
[43] = tested on: RXF 393 renal
[44] = tested on: HCT-116 colon
[45] = tested on: NCI/ADR-RES ovarian
[46] = tested on: SR leukemia
[47] = tested on: MALME-3M melanoma
[48] = tested on: SW-620 colon
[49] = tested on: 786-0 renal
[50] = tested on: U251 glioblastoma
[51] = tested on: SN12C renal
[52] = tested on: OVCAR-5 ovarian
[53] = tested on: SK-MEL-5 melanoma
[54] = tested on: K-562 leukemia
[55] = tested on: HL-60(TB) leukemia
[56] = tested on: COLO 205 colon
[57] = tested on: RPMI-8226 leukemia
[58] = tested on: MCF7 breast
[59] = tested on: KM12 colon

C=CC(=O)Nc1cc(N2CCN(CC)CC2)ccc1Nc1cc(N(C)C(=O)Nc2c(Cl)c(OC)cc(OC)c2Cl)ncn1
19 µM: TGI [52]
> 78.5 µM: TGI [45]
4.08 µM: TGI [6]
3.31 µM: TGI [18] | TGI [25]
6.62 µM: TGI [35]
29.4 µM: TGI [14]
3.96 µM: TGI [13] | TGI [38]
7.01 µM: TGI [37]
3.43 µM: TGI [53]
13.1 µM: TGI [40]
3.18 µM: TGI [39] | TGI [48]
5.02 µM: TGI [16]
2.21 µM: TGI [30]
31 µM: TGI [22]
5.57 µM: TGI [27]
7.71 µM: TGI [20]
5.84 µM: TGI [31]
2.99 µM: TGI [15]
3.14 µM: TGI [5] | TGI [49]
2.01 µM: TGI [29]
2.78 µM: TGI [4]
3.37 µM: TGI [55]
3.76 µM: TGI [12]
6.28 µM: TGI [58]
3.46 µM: TGI [44]
3.74 µM: TGI [51]
10.7 µM: TGI [36]
2.19 µM: TGI [43]
4.31 µM: TGI [2]
3.44 µM: TGI [50]
3.28 µM: TGI [34]
3.27 µM: TGI [32]
3.47 µM: TGI [47]
4.24 µM: TGI [56]
2.77 µM: TGI [21]
6.36 µM: TGI [19]
2.92 µM: TGI [33]
2.73 µM: TGI [42]
3.66 µM: TGI [24]
5.12 µM: TGI [9]
4.39 µM: TGI [8] | TGI [10]
3.02 µM: TGI [41]
inactive: GI50 [1] 1.21 µM | GI50 [2] 1.98 µM | GI50 [3] 1.58 µM | GI50 [4] 1.42 µM | GI50 [5] 1.72 µM | GI50 [6] 2.03 µM | GI50 [7] 1.4 µM | GI50 [8] 1.84 µM | GI50 [9] 2.38 µM | GI50 [10] 2.05 µM | GI50 [11] 2.51 µM | GI50 [12] 1.91 µM | GI50 [13] 1.88 µM | GI50 [14] 15.8 µM | GI50 [15] 1.31 µM | GI50 [16] 2.18 µM | GI50 [17] 1.56 µM | GI50 [18] 1.76 µM | GI50 [19] 2.45 µM | GI50 [20] 2.89 µM | GI50 [21] 1.02 µM | GI50 [22] 10.5 µM | GI50 [23] 2.83 µM | GI50 [24] 1.86 µM | GI50 [25] 1.67 µM | GI50 [26] 3.68 µM | GI50 [27] 2.34 µM | GI50 [28] 1.7 µM | GI50 [29] 0.785 µM | GI50 [30] 0.91 µM | GI50 [31] 2.56 µM | GI50 [32] 1.81 µM | GI50 [33] 1.56 µM | GI50 [34] 1.87 µM | GI50 [35] 2.03 µM | GI50 [36] 4.55 µM | GI50 [37] 2.64 µM | GI50 [38] 1.97 µM | GI50 [39] 1.73 µM | GI50 [40] 5.63 µM | GI50 [41] 1.63 µM | GI50 [42] 1.4 µM | GI50 [43] 0.68 µM | GI50 [44] 1.88 µM | GI50 [45] > 44.6 µM | GI50 [46] 0.922 µM | GI50 [47] 1.96 µM | GI50 [48] 1.77 µM | GI50 [49] 1.71 µM | GI50 [50] 1.89 µM | GI50 [51] 2.01 µM | GI50 [52] 7.01 µM | GI50 [53] 1.8 µM | GI50 [54] 1.85 µM | GI50 [55] 1.94 µM | GI50 [56] 2.31 µM | GI50 [57] 0.605 µM | GI50 [58] 1.75 µM | GI50 [59] 1.76 µM
3.08 µM: TGI [28]
6.99 µM: TGI [23]
2.95 µM: TGI [3]
2.85 µM: TGI [7]
3.03 µM: TGI [17]
3.4 µM: TGI [54]
10 µM: TGI [26]
6.71 µM: TGI [11]
3.23 µM: TGI [59]
2.23 µM: TGI [46]
2.46 µM: TGI [1]
1.52 µM: TGI [57]

O=P1(S)OC[C@H]2O[C@@H]3[C@H](F)[C@@H]2OP(O)(=S)OC[C@H]2O[C@H]([C@H](F)[C@@H]2O1)n1cnc2c(ncnc21)NC/C=C/CNc1ncnc2c1ncn23 (some centres not stated)
0.101 µM: TGI [46]
44.2 µM: TGI [41]
46 µM: TGI [31]
38.8 µM: TGI [7]
20.6 µM: TGI [30]
0.361 µM: TGI [8]
19.3 µM: TGI [4]
19.7 µM: TGI [43]
inactive: GI50 [1] 2.82 µM | GI50 [3] 7.46 µM | GI50 [5] > 100 µM | GI50 [6] > 100 µM | GI50 [7] 4.99 µM | GI50 [9] > 100 µM | GI50 [10] > 100 µM | GI50 [11] 24.3 µM | GI50 [12] > 100 µM | GI50 [13] > 100 µM | GI50 [14] > 100 µM | GI50 [15] > 100 µM | GI50 [16] > 100 µM | GI50 [17] > 100 µM | GI50 [18] > 100 µM | GI50 [19] > 100 µM | GI50 [20] > 100 µM | GI50 [21] > 100 µM | GI50 [22] > 100 µM | GI50 [23] > 100 µM | GI50 [24] > 100 µM | GI50 [25] > 100 µM | GI50 [26] > 100 µM | GI50 [28] > 100 µM | GI50 [29] 2.24 µM | GI50 [30] 5.67 µM | GI50 [31] 2.97 µM | GI50 [32] > 100 µM | GI50 [33] 39.2 µM | GI50 [34] > 100 µM | GI50 [35] 11.3 µM | GI50 [36] > 100 µM | GI50 [37] > 100 µM | GI50 [38] 19.2 µM | GI50 [39] > 100 µM | GI50 [40] > 100 µM | GI50 [41] 7.35 µM | GI50 [42] 9.28 µM | GI50 [44] > 100 µM | GI50 [45] > 100 µM | GI50 [47] > 100 µM | GI50 [48] > 100 µM | GI50 [49] > 100 µM | GI50 [50] > 100 µM | GI50 [51] > 100 µM | GI50 [52] > 100 µM | GI50 [53] > 100 µM | GI50 [54] > 100 µM | GI50 [56] 48.6 µM | GI50 [57] 22.1 µM | GI50 [58] > 100 µM | GI50 [59] 51.2 µM
> 100 µM: TGI [3] | TGI [5] | TGI [6] | TGI [9] | TGI [10] | TGI [11] | TGI [12] | TGI [13] | TGI [14] | TGI [15] | TGI [16] | TGI [17] | TGI [18] | TGI [19] | TGI [20] | TGI [21] | TGI [22] | TGI [23] | TGI [24] | TGI [25] | TGI [26] | TGI [28] | TGI [32] | TGI [33] | TGI [34] | TGI [35] | TGI [36] | TGI [37] | TGI [38] | TGI [39] | TGI [40] | TGI [42] | TGI [44] | TGI [45] | TGI [47] | TGI [48] | TGI [49] | TGI [50] | TGI [51] | TGI [52] | TGI [53] | TGI [54] | TGI [56] | TGI [57] | TGI [58] | TGI [59]
active: GI50 [4] 0.151 µM | GI50 [8] 0.0932 µM | GI50 [43] 0.0445 µM | GI50 [46] 0.0295 µM | GI50 [55] 0.189 µM
0.4 µM: TGI [55]
7.62 µM: TGI [29]
52 µM: TGI [1]

— PubChem BioAssay (NCI)
